Test results taken from patent US11033527B2, “Non-hormonal treatment of the genitourinary syndrome of menopause” (IMMUGEN PHARMA LLC, priority 2018, dated 2021).
“And” between values parts separate entries of the source, which are not always exact repeats. Equal entries are not always repeated.

Test system: vaginal tissue construct
Experiment: microarray analysis of differential gene expression (Affymetrix Human Gene 1.0 ST arrays), tissues treated for seven days via culture medium
Format: cell-based
Excerpt: The data from the Affymetrix Human Gene 1.0 ST arrays were normalized using the Robust Multiarray Average (RMA) algorithm and a Chip Definition File (CDF) that maps the probes on the array to unique Entrez Gene identifiers. The result is a matrix in which each column corresponds to a sample. The expression values are log 2-transformed by default.
By using a fold change >1.5, an analysis of differentially expressed genes was done to identify those genes which were involved in the cornified envelope, keratinocyte differentiation, cell differentiation, epidermis development, epithelial cell differentiation, junctional proteins and signaling, immune response and innate immune response.

With CCCCCCC(C)(C)c1cc(OC)c2c(c1)OC(C)(C)[C@@H]1CC=C(C)C[C@@H]21 [L759,633] as the compound, how does the “IL33 Expr Fold Change” value (gene interleukin 33) read?
Its value is −3.109 fold.

And the “IL36A Expr Fold Change” value (gene interleukin 36 alpha)?
Its value is 4.185 fold.

And the “IL36RN Expr Fold Change” value (gene interleukin 36 receptor antagonist)?
The value was 4.668 fold.

And the “KLK6 Fold Change” value (gene kallikrein related peptidase 6)?
The value was 4.651 fold.

And the “KLK8 Fold Change” value (gene kallikrein related peptidase 8)?
The value was 1.842 fold.

What about the “KLK10 Fold Change” value (gene kallikrein related peptidase 10) of the same compound?
The value was 2.554 fold.

And the “KLK12 Fold Change” value (gene kallikrein related peptidase 12)?
The value was 3.933 fold.

And the “KLK13 Fold Change” value (gene kallikrein related peptidase 13)?
The value was 3.957 fold.

And the “KRT1 Fold Change” value (gene keratin 1)?
Its value is 10.739 fold and 10.5 fold.

And the “KRT2 Fold Change” value (gene keratin 2)?
Its value is 1.801 fold.

What about the “KRT20 Fold Change” value (gene keratin 20) of the same compound?
The value was −3.42 fold.

What about the “KRT23 Fold Change” value (gene keratin 23) of the same compound?
Its value is 1.912 fold.

What about the “KRT24 Fold Change” value (gene keratin 24) of the same compound?
The value was 1.619 fold.

What about the “KRTDAP Fold Change” value (gene keratinocyte differentiation associated protein) of the same compound?
Its value is 15.751 fold and 15.7 fold.

And the “LCE1A Fold Change” value (gene late cornified envelope 1A)?
Its value is 1.884 fold.

What about the “LCE1C Fold Change” value (gene late cornified envelope 1C) of the same compound?
The value was 4.063 fold.

And the “LCE1F Fold Change” value (gene late cornified envelope 1F)?
Its value is 1.593 fold.

And the “LCE2A Fold Change” value (gene late cornified envelope 2A)?
The value was 6.392 fold.

And the “LCE2B Fold Change” value (gene late cornified envelope 2B)?
Its value is 11.182 fold.

And the “LCE2C/LCE2D Fold Change” value (gene late cornified envelope 2D)?
The value was 24.247 fold.

What about the “LCE3D Fold Change” value (gene late cornified envelope 3D) of the same compound?
Its value is 15.6 fold.

And the “LCE3E Fold Change” value (gene late cornified envelope 3E)?
Its value is 16 fold.

And the “LCE5A Fold Change” value (gene late cornified envelope 5A)?
Its value is 1.63 fold.

And the “LIPM Fold Change” value (gene lipase family member M)?
The value was 11.426 fold.

What about the “LIPN Fold Change” value (gene lipase family member N) of the same compound?
Its value is 7.346 fold.

And the “LIPN1 Fold Change” value (gene lipin 1)?
The value was 3.775 fold.

What about the “LOR Fold Change” value (gene loricrin) of the same compound?
The value was 7.932 fold.

What about the “LY6G6C Expr Fold Change” value (gene lymphocyte antigen 6 family member G6C) of the same compound?
Its value is 6.538 fold.

What about the “HLA-C Expr Fold Change” value (gene major histocompatibility complex, class C) of the same compound?
Its value is −1.691 fold.

What about the “HLA-B Expr Fold Change” value (gene major histocompatibility complex, class I, B) of the same compound?
The value was −2.168 fold.

What about the “HLA-DMB Expr Fold Change” value (gene major histocompatibility complex, class II, DM beta) of the same compound?
Its value is −1.591 fold.

What about the “HLA-DPA1 Expr Fold Change” value (gene major histocompatibility complex, class II, DP alpha 1) of the same compound?
Its value is −1.7 fold.

What about the “HLA-DRA Expr Fold Change” value (gene major histocompatibility complex, class II, DR alpha) of the same compound?
The value was −2.792 fold.

And the “HLA-DRB6 Expr Fold Change” value (gene major histocompatibility complex, class II, DR beta 6 (pseudogene))?
The value was −2.7 fold.

And the “ME1 Fold Change” value (gene malic enzyme 1, NADP(+)-dependent cytosolic)?
Its value is 2.9 fold.

What about the “MUCL1 Fold Change” value (gene mucin like 1) of the same compound?
Its value is ~2 fold and 1.964 fold.

And the “NCR3LG1 Expr Fold Change” value (gene natural killer cell cytotoxicity receptor 3 ligand 1)?
Its value is 2.482 fold.

And the “NFAT5 Expr Fold Change” value (gene nuclear factor of activated T cells 5)?
The value was 2.265 fold.

What about the “OLFM4 Expr Fold Change” value (gene olfactomedin 4) of the same compound?
The value was −6.772 fold.

And the “PNLIPRP3 Fold Change” value (gene pancreatic lipase-related protein 3)?
The value was 1.6 fold.

What about the “PLA2G2F Fold Change” value (gene phospholipase A2 group IIF) of the same compound?
Its value is 2.054 fold.

What about the “PLA2G3 Fold Change” value (gene phospholipase A2 group III) of the same compound?
Its value is 2.218 fold.

What about the “PLA2G4D Fold Change” value (gene phospholipase A2 group IVD) of the same compound?
Its value is 3.526 fold.

What about the “PLA2G4E Fold Change” value (gene phospholipase A2 group IVE) of the same compound?
The value was 3.36 fold.

And the “PLA2G10 Fold Change” value (gene phospholipase A2 group X)?
Its value is −3.027 fold.

And the “PLAC8 Fold Change” value (gene placenta-specific 8)?
Its value is −3.3 fold.

And the “PIGR Fold Change” value (gene polymeric immunoglobulin receptor)?
The value was −2.4 fold.

And the “PDCD1LG2 Expr Fold Change” value (gene programmed cell death 1 ligand 2)?
Its value is −1.74 fold.

What about the “RPS15A Expr Fold Change” value (gene ribosomal protein S15a) of the same compound?
The value was −1.78 fold.

What about the “SERPINB12 Fold Change” value (gene serpin family B member 12) of the same compound?
Its value is 5.202 fold and 5.1 fold.

What about the “STAT4 Expr Fold Change” value (gene signal transducer and activator of transcription 4) of the same compound?
The value was −2.518 fold.

And the “SPRR2G Fold Change” value (gene small proline rich protein 2G)?
Its value is 10.387 fold.

And the “SPRR4 Fold Change” value (gene small proline rich protein 4)?
Its value is 2.619 fold.

What about the “SBSN Fold Change” value (gene suprabasin) of the same compound?
The value was 4.36 fold and 4.3 fold.

And the “TLR3 Expr Fold Change” value (gene toll like receptor 3)?
The value was −3.274 fold.

And the “TRPV3 Fold Change” value (gene transient receptor potential cation channel subfamily V member 3)?
The value was 2.8 fold and 2.804 fold.

What about the “UBA7 Expr Fold Change” value (gene ubiquitin like modifier activating enzyme 7) of the same compound?
The value was −2.031 fold.

What about the “VEGFA Fold Change” value (gene vascular endothelial growth factor A) of the same compound?
Its value is 2.0 fold and 1.885 fold.

And the “mir-23 Expr Fold Change” value (microRNA 23a)?
The value was 2.823 fold.

What about the “mir-224 Expr Fold Change” value (microRNA 224) of the same compound?
The value was 6.266 fold.

And the MMP10 expression (result in words)?
Its MMP10 expression is “downregulated”.
